We go through 3 compounds from paper PMC5218823, “Acute effects of ethanol on GABAA and glycine currents in the lateral habenula neurons of young rats” (Open journal of neuroscience, 2013).

The subject of test [1] is T1, glycine receptors (GlyRs) of lateral habenula neurons.
T1 construct: gene Glra1
Conditions: VH -60 mV; pH 7.4; 22-24 °C; agonist.

For test [2] the test system is unchanged. The experiment in a line: whole-cell patch clamp, inhibition of glycine current. It counts as cell-based, Rattus norvegicus. Conditions: 500 μM glycine, co-applied; VH -60 mV; pH 7.4; 22-24 °C; antagonist. (The patch-clamp technique gives a direct electrical read-out from membranes.)
The test system of test [3] is T2, GABAA receptors (GABAARs) of lateral habenula neurons.
T2 construct: gene Gabra1
The note with it: 10 μM GABA, co-applied; VH -60 mV; pH 7.4; 22-24 °C; voltage-independent; extrapolated beyond tested 10.8-43.2 mM.

Test [4] relates to T1, glycine receptors (GlyRs) of lateral habenula neurons. Conditions: 30 μM glycine; VH -60 mV; pH 7.4; 22-24 °C; positive modulator.

What is called EC50 is the concentration at which the effect is half-maximal. Low readings indicate a more potent agent, high ones a less potent agent. For the compound `NCC(=O)O` [glycine], in test [1], the EC50 is 83.3 µM.

What is called IC50 is the point on the concentration scale where inhibition reaches its midpoint. `O=C1C[C@@H]2OCC=C3CN4CC[C@]56c7ccccc7N1[C@H]5[C@H]2[C@H]3C[C@H]46` [strychnine] registered an IC50 in test [2] of 0.22 µM.

For the compound `CCO` [ethanol], the IC50 in test [3] is 94100 ± 29100 µM. The “% of control at 43.2 mM” value in test [4] turned out to be 148 ± 14%.
